Experimental data: patent US20220281970A1, “Pharmaceutical Combinations” (Novartis AG, priority 2018, published 2022)
In brackets after ≈: the same amount, converted by molar mass.

Assays:
[1] = Clinical study CPDR001X2105, MBG453 in AML/MDS subjects; format: in vivo, human; conditions: 400 mg Q2W and 800 mg Q4W
Procedure: (§1) The MBG453 single agent RD has been determined as 800 mg Q4W in solid tumor subjects primarily based on PK and PKPD modeling of target (TIM-3) occupancy. MBG453 at the dose level of 800 mg Q4W was predicted to give sustained target occupancy of 90% in tumor in >90% of subjects. […] MBG453 single agent is also being evaluated in AML/MDS subjects in the CPDR001X2105 study with Q4W and Q2W regimens.
The RD in AML/MDS has not yet been determined, however it is not expected to be different from solid tumors, based on preliminary PK and safety data.

[2] = Clinical study CMBG453X2101, MBG453 single agent in solid tumor subjects; format: in vivo, human; conditions: Q4W, based on PK and PKPD modeling of TIM-3 occupancy
Procedure: as §1

[3] = system: platelet (PLT); experiment: Population PK/PD platelet model parameter estimates (NLME, Monolix) from CHDM201X2101 dataset; format: in vivo, human; conditions: population estimate
Text: Based on the population PK/PD data of the clinical study CHDM201X2101, an AML patients platelet model was developed which recognizes that the disease influences the regulation of platelets production. The following graphic elucidates the model.
(§2) For model building the PK/PD dataset of CHDM201X2101 were used and an NLME estimation (Monolix 4.3.2) performed. The model structure and the parameter estimates are provided below. This provided inputs for R/shiny. The mlxR package were used for simulation of longitudinal data from the MLXTRAN model.
EP1=kr1*E^h/(E^h+EC50^h)+kr1D*Cc

[4] = system: hematological tumors; experiment: Clinical study CHDM201X2101, HDM201 single agent; format: in vivo, human
Procedure: With this regimen, the RD has been determined as 45 mg HDM201 in hematological tumors in the CHDM201X2101 study. […] Proceedings of the American Association for Cancer Research Annual Meeting 2017; 2017 Apr. 1-5; Washington, D.C. Philadelphia (Pa.): AACR; Cancer Res 2017; 77 (13 Suppl): Abstract nr CT154. doi:10.1158/1538-7445.AM2017-CT154).
The starting dose and regimen selection for HDM201 in dose escalation is based on the previous Phase I dose escalation and expansion study of HDM201 as a single-agent in subjects with AML/MDS (CHDM201X2101) in which a dose of 45 mg/day (day 1-7/28-day cycle) was determined to be the RD. In this study, a starting dose and regimen of 20 mg/day HDM201 (day 1-5/28-day cycle) for dose escalation has been selected. The selection of dose and regimen was supported by single agent translational preclinical modeling of tumor bearing rats and population PK/PD modeling of thrombocytopenia and bone marrow blast data from CHDM201X2101 study in AML/MDS subjects. The starting dose corresponds to ˜[…] below the cumulative dose of HDM201 single agent RD (as evaluated in CHDM201X2101 at 45 mg/day (day 1-7/28-day cycle), or 315 mg/cycle). At this dose level, ˜15% of subjects are predicted to achieve preclinical derived average target efficacious concentrations of HDM201 per cycle, with some anticipated clinical activity (bone marrow blast reduction) and limited target myelosuppression.

[5] = system: Colon 26 cells; experiment: Colon 26 Colorectal Cancer (CRC) syngeneic mouse model; format: in vivo
Procedure: Balb/c mice were implanted with 2×10^5 Colon 26 cells subcutaneously. Mice were treated with HDM201 at 40 mg/kg×3 every 3 h po on Days 10, 17 and 24 post cell implant, and anti-Tim3 antibody (murine cross reactive clone 5D12) at 5 mg/kg ip on days 10, 13, 17, and 20. End-point was defined as tumor volume equal or greater than 1000 mm^3.
The anti-tumor effects of HDM201 as a monotherapy or in combination with an anti-TIM3 antibody were evaluated in the Colon 26 Colorectal Cancer (CRC) syngeneic mouse model.

[6] = Population PK model parameter estimates (NLME, Monolix) from CHDM201X2101 dataset; format: in vivo, human; conditions: population estimate
Text: as §2
parameter={r, t1, t2, Tk0, ka, V, Cl, PLTz, MMTP, T12P, sPW, alp, lPW, kr1, kr1D, EC50, ke0, cfr, h, Sg, HGD, koutg, gdfZ, kinG}

[7] = learning from clinical study CHDM201X2101
[8] = Balb/c mice, Colon 26 sc, HDM201 40 mg/kg x3 every 3 h po days 10, 17, 24, anti-Tim3 antibody 5 mg/kg ip days 10, 13, 17, 20

MBG453: high-affinity, humanized anti-TIM-3 IgG4 monoclonal antibody which blocks the binding of TIM-3 to phosphatidylserin (PtdSer)
tolerability in AML/MDS [1]: well tolerated
single agent RD (recommended dose) [2]: 800 mg

COc1ncc(-c2nc3c(n2C(C)C)[C@H](c2ccc(Cl)cc2)N(c2cc(Cl)cn(C)c2=O)C3=O)c(OC)n1 [HDM201, (S)-5-(5-Chloro-1-methyl-2-oxo-1,2-dihydro-pyridin-3-yl)-6-(4-chloro-phenyl)-2-(2,4-dimethoxy-pyrimidin-5-yl)-1-isopropyl-5,6-dihydro-1H-pyrrolo[3,4-d]imidazol-4-one]
EC50 ([3]; Homo sapiens, drug effect EP1 on platelet production, read-out: pop_EC50): 0.261 µg/mL (≈ 0.469 µM)
pop_h ([3]; method=FIXED, exponent h in EP1): 2
pop_kr1D ([3]; concentration-proportional term of EP1): 0.006491
pop_ke0 ([3]; effect compartment): 6.152e-05
pop_kr1 ([3]; maximal term of drug effect EP1): 2.1374
RD (recommended dose) ([4]; day 1-7/28-day cycle, single-agent, subjects with AML/MDS): 45 mg/day
hematopoietic recovery on dosing in AML [4, 7]: Delayed hematopoietic recovery
platelet toxicity on dosing in AML [4, 7]: Cumulative platelet toxicity
RD (recommended dose) ([4]; once daily day 1 to day 7 of a 28-day cycle, hematological tumors): 45 mg
anti-tumor effects (tumor growth) [5, 8]: inhibited tumor growth
complete tumor regressions (CR) [5, 8]: 1 CR
anti-tumor immune memory / resistance to re-challenge ([5]; mice with CR or long-term survival, Colon 26 cells): develop antitumor immunity and are resistant to re-challenge with the same tumor cells
pop_Tk0 [6]: 1.314
pop_Cl ([6]; method=FIXED): 6.18
pop_V ([6]; method=FIXED): 119
pop_ka ([6]; method=FIXED): 0.489
pop_t1 ([6]; method=FIXED, absorption lag (Tlag=t1)): 0.69
pop_t2 ([6]; method=FIXED, absorption lag (Tlag=t2)): 0.412
pop_r ([6]; method=FIXED, fraction for zero-order absorption): 0.617
